Values after ≈ are worked out from the molar mass of the structure shown.
Key:
[1] = system: Escherichia coli; assay: Antimicrobial activity against Escherichia coli ATCC 25922 infected in CD-1 ICR mouse using 1 X 10^5 CFU inoculum; type: functional
[2] = system: Escherichia coli; assay: microbe, parasite or virus in culture; details: ATCC 25922
Description: Antimicrobial activity against Escherichia coli ATCC 25922 using 1 X 10^5 CFU inoculum by agar dilution method

[3] = system: Staphylococcus aureus; assay: Antimicrobial activity against methicillin-susceptible Staphylococcus aureus ATCC 29213 infected in CD-1 ICR mouse using 1.5 X 10^5 CFU inoculum; type: functional
[4] = system: Staphylococcus aureus; assay: Antimicrobial activity against methicillin-susceptible Staphylococcus aureus 15 using 2.5 X 10^5 CFU inoculum by agar dilution method; type: functional
[5] = system: Enterococcus faecalis; assay: Antimicrobial activity against Enterococcus faecalis ATCC 29212 infected in CD-1 ICR mouse using 2.8 X 10^7 inoculum; type: functional
[6] = system: Escherichia coli; assay: Antimicrobial activity against Escherichia coli 9612 infected in CD-1 ICR mouse using 3.7 X 10^4 CFU inoculum; type: functional
[7] = system: Staphylococcus aureus; assay: Antimicrobial activity against methicillin-susceptible Staphylococcus aureus ATCC 29213 using 1.5 X 10^5 CFU inoculum by agar dilution method; type: functional
[8] = system: Staphylococcus aureus; assay: Antimicrobial activity against methicillin-resistant Staphylococcus aureus 9344 using 2.5 X 10^5 CFU inoculum by agar dilution method; type: functional
[9] = system: Escherichia coli; assay: Antimicrobial activity against Escherichia coli 9612 using 3.7 X 10^4 CFU inoculum by agar dilution method; type: functional
[10] = system: Escherichia coli; assay: microbe, parasite or virus in culture; details: 1515
Description: Antimicrobial activity against Escherichia coli 1515 using 2.4 X 10^6 CFU inoculum by agar dilution method

[11] = system: Klebsiella pneumoniae; assay: microbe, parasite or virus in culture; details: 935
Description: Antimicrobial activity against Klebsiella pneumoniae 935 using 3 X 10^5 CFU inoculum by agar dilution method

[12] = system: Enterococcus faecalis; assay: Antimicrobial activity against Enterococcus faecalis ATCC 29212 using 2.8 X 10^7 by agar dilution method; type: functional
[13] = system: Staphylococcus aureus; assay: Antimicrobial activity against methicillin-susceptible Staphylococcus aureus 15 infected in CD-1 ICR mouse using 2.5 X 10^5 CFU inoculum; type: functional
[14] = system: Enterococcus faecalis; assay: Antimicrobial activity against Enterococcus faecalis HH22 infected in CD-1 ICR mouse using 1.8 X 10^8 inoculum; type: functional
[15] = system: Enterococcus faecalis; assay: Antimicrobial activity against Enterococcus faecalis HH22 using 1.8 X 10^8 by agar dilution method; type: functional
[16] = system: Staphylococcus aureus; assay: Antimicrobial activity against methicillin-resistant Staphylococcus aureus 9344 infected in CD-1 ICR mouse using 2.5 X 10^5 CFU inoculum; type: functional
[17] = system: Klebsiella pneumoniae; assay: microbe, parasite or virus in culture; details: 967
Description: Antimicrobial activity against Klebsiella pneumoniae 967 using 2.6 X 10^5 CFU inoculum by agar dilution method

[18] = system: Klebsiella pneumoniae; assay: Antimicrobial activity against Klebsiella pneumoniae 935 infected in CD-1 ICR mouse using 3 X 10^5 CFU inoculum; type: functional
[19] = system: Klebsiella pneumoniae; assay: Antimicrobial activity against Klebsiella pneumoniae 967 infected in CD-1 ICR mouse using 2.6 X 10^5 CFU inoculum; type: functional
[20] = system: Escherichia coli; assay: Antimicrobial activity against Escherichia coli 1515 infected in CD-1 ICR mouse using 2.4 X 10^6 CFU inoculum; type: functional
[21] = system: Escherichia coli; assay: Antimicrobial activity against Escherichia coli 9612 infected in CD-1 ICR mouse assessed as decrease in bacterial load in kidney at 4.32 mg/kg, sc after 72 hrs (reference value: 4.45 +/- 0.37 log10CFU/g); type: functional; details: route subcutaneous
[22] = system: Escherichia coli; assay: Antimicrobial activity against Escherichia coli 9612 infected in new Zealand white rabbit with skin burn injury assessed as decrease in bacterial load in burn wound at 2 mg/ml after 24 hrs (reference value: 8.57 +/- 0.35 log10CFU/g); type: functional
[23] = system: Escherichia coli; assay: Antimicrobial activity against Escherichia coli 9612 infected in CD-1 ICR mouse assessed as decrease in bacterial load in kidney at 20 mg/kg, sc after 72 hrs (reference value: 4.45 +/- 0.37 log10CFU/g); type: functional; details: route subcutaneous
[24] = system: Escherichia coli; assay: Antimicrobial activity against Escherichia coli 9612 infected in new Zealand white rabbit with skin burn injury assessed as decrease in bacterial load in burn wound at 0.5 mg/ml after 24 hrs (reference value: 8.57 +/- 0.35 log10CFU/g); type: functional
[25] = system: Escherichia coli; assay: Antimicrobial activity against Escherichia coli 9612 infected in CD-1 ICR mouse assessed as decrease in bacterial load in kidney at 7.2 mg/kg, sc after 72 hrs (reference value: 4.45 +/- 0.37 log10CFU/g); type: functional; details: route subcutaneous
[26] = system: Escherichia coli; assay: Antimicrobial activity against Escherichia coli 9612 infected in CD-1 ICR mouse assessed as decrease in bacterial load in kidney at 12 mg/kg, sc after 72 hrs (reference value: 4.45 +/- 0.37 log10CFU/g); type: functional; details: route subcutaneous
[27] = system: Escherichia coli; assay: Antimicrobial activity against Escherichia coli 9612 infected in CD-1 ICR mouse assessed as decrease in bacterial load in kidney at 2.59 mg/kg, sc after 72 hrs (reference value: 4.45 +/- 0.37 log10CFU/g); type: functional; details: route subcutaneous

Compound	ED50 [1] [mg/kg]	MIC [2] [µg/mL]	ED50 [3] [mg/kg]	MIC [4] [µg/mL]	ED50 [5] [mg/kg]	ED50 [6] [mg/kg]	MIC [7] [µg/mL]	MIC [8] [µg/mL]	MIC [9] [µg/mL]	MIC [10] [µg/mL]	MIC [11] [µg/mL]	MIC [12] [µg/mL]	ED50 [13] [mg/kg]	ED50 [14] [mg/kg]	MIC [15] [µg/mL]	ED50 [16] [mg/kg]	MIC [17] [µg/mL]	ED50 [18] [mg/kg]	ED50 [19] [mg/kg]	ED50 [20] [mg/kg]	also measured
CCN[C@@H]1C[C@H](N)[C@@H](O[C@H]2OC(CN)=CC[C@H]2N)[C@H](O)[C@H]1O[C@H]1OC[C@](C)(O)[C@H](NC)[C@H]1O [NETILMICIN]	0.77	0.5 (≈ 1.05 µM)	0.26	0.125 (≈ 0.263 µM)	3.44	0.63	0.125 (≈ 0.263 µM)	0.25 (≈ 0.526 µM)	0.5 (≈ 1.05 µM)	0.5 (≈ 1.05 µM)	0.5 (≈ 1.05 µM)	8 (≈ 16.8 µM)	0.49	6.56	8 (≈ 16.8 µM)	0.88	0.5 (≈ 1.05 µM)	0.33	0.17	0.46	–
CN[C@@H]1[C@@H](O)[C@@H](O[C@@H]2[C@@H](O)[C@H](O[C@@H]3OC(C(C)N)=CC[C@@H]3N)[C@@H](N)C[C@H]2N)OC[C@]1(C)O (stereo partly drawn) [VERDAMICIN]	1.09	0.5 (≈ 1.08 µM)	0.23	0.125 (≈ 0.271 µM)	5.24	2.66	0.125 (≈ 0.271 µM)	0.25 (≈ 0.542 µM)	4 (≈ 8.67 µM)	0.5 (≈ 1.08 µM)	0.5 (≈ 1.08 µM)	8 (≈ 17.3 µM)	0.66	> 100	> 128	1.33	0.25 (≈ 0.542 µM)	0.29	0.16	0.49	–
CCN[C@@H]1C[C@H](N)[C@@H](O[C@@H]2OC(C(C)N)=CC[C@@H]2N)[C@H](O)[C@H]1O[C@H]1OC[C@](C)(O)[C@H](NC)[C@H]1O (stereo partly drawn) [VERTILMICIN]	0.82	0.5 (≈ 1.02 µM)	0.25	0.125 (≈ 0.255 µM)	4.35	0.67	0.125 (≈ 0.255 µM)	0.25 (≈ 0.511 µM)	0.5 (≈ 1.02 µM)	0.5 (≈ 1.02 µM)	0.5 (≈ 1.02 µM)	8 (≈ 16.3 µM)	0.7	7.11	8 (≈ 16.3 µM)	0.99	0.25 (≈ 0.511 µM)	0.29	0.18	0.63	log10CFU/g [21]: 3.22; log10CFU/g [22]: 5; log10CFU/g [23]: 2.36; log10CFU/g [24]: 6.33; log10CFU/g [25]: 3.07; log10CFU/g [26]: 3.11; log10CFU/g [27]: 3.32
GENTAMICIN	1.5	–	0.6	0.125	17.5	7.88	0.125	0.25	8	–	–	8	0.61	> 100	> 128	2.84	–	0.68	0.32	1.11	–

Reference: ChEMBL document CHEMBL1649228, “In vivo antibacterial activity of vertilmicin, a new aminoglycoside antibiotic” (2009)
